The assay concerns M. tuberculosis clinical isolates, resistant. Nature of the assay: microbe, parasite or virus in culture. Format: cell-based, Mycobacterium tuberculosis. As to conditions: for MIC against Clinical isolates Resistant: Table I, agar dilution; for MIC: Mycobacterium tuberculosis, read-out: MIC against Clinical isolates Resistant.

Values after ≈ are worked out from the molar mass of the structure shown.

As to `O=C(CCC(=O)c1ccccc1)NC[C@H]1CN(c2ccc(N3CCOCC3)c(F)c2)C(=O)O1` [Compound 1, (S)-N-[[3-(3-fluoro-4-morpholinylphenyl)-2-oxo-5-oxazolidinyl]methyl]-4-oxo-4-phenylbutanamide], the “MIC against Clinical isolates Resistant” value was over 16 µg/mL.

As for `Cc1ccc(C(=O)CCC(=O)NC[C@H]2CN(c3ccc(N4CCOCC4)c(F)c3)C(=O)O2)cc1` [Compound 2, (S)-N-[[3-(3-fluoro-4-morpholinylphenyl)-2-oxo-5-oxazolidinyl]methyl]-4-(4-methylphenyl)-4-oxobutanamide], the “MIC against Clinical isolates Resistant” value was 8 µg/mL (≈ 17 µM).

Turning to `O=C(CCC(=O)c1ccccc1)NC[C@H]1CN(c2ccc(N3CCSCC3)c(F)c2)C(=O)O1` [Compound 8, (S)-N-[[3-(3-fluoro-4-thiomorpholinylphenyl)-2-oxo-5-oxazolidinyl]methyl]-4-oxo-4-phenylbutanamide], the “MIC against Clinical isolates Resistant” value was in the range of 2 to 4 µg/mL.

Regarding `COc1ccc(C(=O)CCC(=O)NC[C@H]2CN(c3ccc(N4CCOCC4)c(F)c3)C(=O)O2)cc1` [Compound 13, (S)-N-[[3-(3-fluoro-4-morpholinylphenyl)-2-oxo-5-oxazolidinyl]methyl]-4-(4-methoxyphenyl)-4-oxobutanamide], the “MIC against Clinical isolates Resistant” value lay in the range of 2 to 4 µg/mL.

Take `Cc1ccc(C(=S)CCC(=O)NC[C@H]2CN(c3ccc(N4CCOCC4)c(F)c3)C(=O)O2)cc1` [Compound 15, (S)-N-[[3-(3-fluoro-4-morpholinylphenyl)-2-oxo-5-oxazolidinyl]methyl]-4-(4-methylphenyl)-4-thiooxobutanamide]: the “MIC against Clinical isolates Resistant” value is over 16 µg/mL.

Regarding `O=C(CCC(=O)c1ccc2ccccc2c1)NC[C@H]1CN(c2ccc(N3CCOCC3)c(F)c2)C(=O)O1` [Compound 16, (S)-N-[[3-(3-fluoro-4-morpholinylphenyl)-2-oxo-5-oxazolidinyl]methyl]-4-(4-2-naphthyl)-4-oxobutanamide], the “MIC against Clinical isolates Resistant” value is reported as 0.5(>16) μg/ml.

In the case of `CC(C)Cc1ccc(C(=O)CCC(=O)NC[C@H]2CN(c3ccc(N4CCOCC4)c(F)c3)C(=O)O2)cc1` [Compound 17], the “MIC against Clinical isolates Resistant” value was in the range of 0.5 to 1.0 µg/mL.

Turning to `O=C(CCC(=O)c1cccs1)NC[C@H]1CN(c2ccc(N3CCOCC3)c(F)c2)C(=O)O1` [Compound 19, (S)-N-[[3-(3-fluoro-4-morpholinylphenyl)-2-oxo-5-oxazolidinyl]methyl]-4-oxo-4-(2-thienyl)butanamide], the “MIC against Clinical isolates Resistant” value turned out to be 2 µg/mL (≈ 4.33 µM).

For `CSc1ccc(C(=O)CCC(=O)NC[C@H]2CN(c3ccc(N4CCOCC4)c(F)c3)C(=O)O2)cc1` [Compound 21, (S)-N-[[3-(3-fluoro-4-morpholinylphenyl)-2-oxo-5-oxazolidinyl]methyl]-4-oxo-4-(4-thiomethyl)phenylbutanamide], the “MIC against Clinical isolates Resistant” value is listed as 0.5(>16) μg/ml.

With `Cc1ccc(C(=O)CCC(=O)NC[C@H]2CN(c3ccc(-n4nnc5ccccc54)c(F)c3)C(=O)O2)c(C)c1` [Compound 27, (S)-N-[[3-(3-fluoro-4-benzotriazolylphenyl)-2-oxo-5-oxazolidinyl]methyl]-4-(2,4-dimethylphenyl)-4-oxobutanamide], the “MIC against Clinical isolates Resistant” value is over 16 µg/mL.

For `O=C(CCC(=O)c1cccs1)NC[C@H]1CN(c2ccc(N3CCCC3)c(F)c2)C(=O)O1` [Compound 28, (S)-N-[[3-(3-fluoro-4-pyrrolidinylphenyl)-2-oxo-5-oxazolidinyl]methyl]-4-oxo-4-(2-thienyl)butanamide], the “MIC against Clinical isolates Resistant” value lay within 2 to 8 µg/mL.

On to `O=C(CCC(=O)c1ccc2ccccc2c1)NC[C@H]1CN(c2ccc([N+]3([O-])CCOCC3)c(F)c2)C(=O)O1` [Compound 30, (S)-N-[[3-(3-fluoro-4-morpholinylphenyl)-2-oxo-5-oxazolidinyl]methyl]-4-(4-2-naphthyl)-4-oxobutanamide-N-oxide], for which the “MIC against Clinical isolates Resistant” value lay within 0.5 to 2 µg/mL. Further, the “MIC M. tuberculosis Resistant” value (Table II) lay within 0.50 to 2.0 µg/mL.

As to `O=C(CCC(=O)c1cccs1)NC[C@H]1CN(c2ccc([N+]3([O-])CCOCC3)c(F)c2)C(=O)O1` [Compound 31, (S)-N-[[3-(3-fluoro-4-morpholinylphenyl)-2-oxo-5-oxazolidinyl]methyl]-4-oxo-4-(2-thienyl)butanamide-N-oxide], the “MIC against Clinical isolates Resistant” value was 1 to 4 µg/mL.

Regarding `CC(C)Cc1ccc(C(=O)CCC(=O)NC[C@H]2CN(c3ccc([N+]4([O-])CCOCC4)c(F)c3)C(=O)O2)cc1` [Compound 33], the “MIC against Clinical isolates Resistant” value fell in the range of 0.5 to 2 µg/mL.

On to `O=C(C=CC(=O)c1ccccc1)NC[C@H]1CN(c2ccc(N3CCOCC3)c(F)c2)C(=O)O1` [Compound 34, (S)-N-[[3-(3-fluoro-4-morpholinylphenyl)-2-oxo-5-oxazolidinyl]methyl]-4-oxo-4-phenylbut-2-enamide], for which the “MIC against Clinical isolates Resistant” value is over 16 µg/mL.

For `COc1ccc(C(=O)CCC(=O)NC[C@H]2CN(c3ccc(N4CCCCC4)c(F)c3)C(=O)O2)cc1` [Compound 35, (S)-N-[[3-(3-fluoro-4-piperidylphenyl)-2-oxo-5-oxazolidinyl]methyl]-4-(4-methoxyphenyl)-4-oxobutanamide], the “MIC against Clinical isolates Resistant” value is 4 to 8 µg/mL.

Regarding `O=C(CCC(=O)c1ccc(Cl)cc1)NC[C@H]1CN(c2ccc(N3CCCCC3)c(F)c2)C(=O)O1` [Compound 36, (S)-N-[[3-(3-fluoro-4-piperidylphenyl)-2-oxo-5-oxazolidinyl]methyl]-4-(4-chlorophenyl)-4-oxobutanamide], the “MIC against Clinical isolates Resistant” value was in the range of 4 to 8 µg/mL.

For `O=C(CCC(=O)c1ccc(Cl)cc1)NC[C@H]1CN(c2ccc(-n3nnc4ccccc43)c(F)c2)C(=O)O1` [Compound 39, (S)-N-[[3-(3-fluoro-4-benzotriazolylphenyl)-2-oxo-5-oxazolidinyl]methyl]-4-(4-chlorophenyl)-4-oxobutanamide], the “MIC against Clinical isolates Resistant” value fell in the range of 2 to 8 µg/mL.

As for `Cc1ccc(C(=O)CCC(=O)NC[C@H]2CN(c3ccc(-c4nc[nH]n4)c(F)c3)C(=O)O2)c(C)c1` [Compound 43, (S)-N-[[3-(3-fluoro-4-(1,2,4-triazolyl)phenyl)-2-oxo-5-oxazolidinyl]methyl]-4-(2,4-dimethylphenyl)-4-oxobutanamide], the MIC lay in the range of 1 to 2 µg/mL (≈ 2.15 to 4.3 µM).

For `CSc1ccc(C(=O)CCC(=O)NC[C@H]2CN(c3ccc(-n4cncn4)c(F)c3)C(=O)O2)cc1` [Compound 44, (S)-N-[[3-(3-fluoro-4-(1,2,4-triazolyl)phenyl)-2-oxo-5-oxazolidinyl]methyl]-4-oxo-4-(4-thiomethylphenyl)butanamide], the “MIC against Clinical isolates Resistant” value was 1 to 4 µg/mL.

Turning to `CCCc1ccc(C(=O)CCC(=O)NC[C@H]2CN(c3ccc(-c4nc[nH]n4)c(F)c3)C(=O)O2)c(C)c1` [Compound 46, (S)-N-[[3-(3-fluoro-4-(1,2,4-triazolyl)phenyl)-2-oxo-5-oxazolidinyl]methyl]-4-(2′-methyl-4-propylphenyl)-4-oxobutanamide], the MIC fell in the range of 2 to 8 µg/mL (≈ 4.05 to 16.2 µM).

In the case of `O=C(CCC(=O)c1cccs1)NC[C@H]1CN(c2ccc(-c3nc[nH]n3)c(F)c2)C(=O)O1` [Compound 47, (S)-N-[[3-(3-fluoro-4-(1,2,4-triazolyl)phenyl)-2-oxo-5-oxazolidinyl]methyl]-4-oxo-4-(2-thienyl)butanamide], the MIC fell in the range of 2 to 4 µg/mL (≈ 4.51 to 9.02 µM).

`O=C(CCC(=O)c1ccc2ccccc2c1)NC[C@H]1CN(c2ccc(-c3nc[nH]n3)c(F)c2)C(=O)O1` [Compound 48, (S)-N-[[3-(3-fluoro-4-(1,2,4-triazolyl)phenyl)-2-oxo-5-oxazolidinyl]methyl]-4-(2-naphthyl)-4-oxobutanamide]: the MIC was 2 to 8 µg/mL (≈ 4.1 to 16.4 µM).

Consider `O=C(CCC(=O)c1ccc(Cl)cc1)NC[C@H]1CN(c2ccc(-c3nc[nH]n3)c(F)c2)C(=O)O1` [Compound 49, (S)-N-[[3-(3-fluoro-4-(1,2,4-triazolyl)phenyl)-2-oxo-5-oxazolidinyl]methyl]-4-(4-chlorophenyl)-4-oxobutanamide], for which the MIC fell in the range of 4 to 16 µg/mL (≈ 8.48 to 33.9 µM).

Consider `CC(=O)Nc1ccc(C(=O)CCC(=O)NC[C@H]2CN(c3ccc(-c4nc[nH]n4)c(F)c3)C(=O)O2)cc1` [Compound 50, (S)-N-[[3-(3-fluoro-4-(1,2,4-triazolyl)phenyl)-2-oxo-5-oxazolidinyl]methyl]-4-(4-acetamidophenyl)-4-oxobutanamide], for which the MIC was in the range of 2 to 4 µg/mL (≈ 4.04 to 8.09 µM).

For `CC(=O)Nc1ccc(C(=O)CCC(=O)NC[C@H]2CN(c3ccc(N4CCCCC4)c(F)c3)C(=O)O2)cc1` [Compound 54, (S)-N-[[3-(3-fluoro-4-piperidylphenyl)-2-oxo-5-oxazolidinyl]methyl]-4-(4-acetamidophenyl)-4-oxobutanamide], the “MIC against Clinical isolates Resistant” value is over 16 µg/mL.

Take `O=C(C=CC(=O)c1ccccc1)NC[C@H]1CN(c2ccc(N3CCCCC3)c(F)c2)C(=O)O1` [Compound 55, (S)-N-[[3-(3-fluoro-4-piperidylphenyl)-2-oxo-5-oxazolidinyl]methyl]-4-oxo-4-phenylbut-2-enamide]: the “MIC against Clinical isolates Resistant” value is over 16 µg/mL.

Take `CSc1ccc(C(=O)CCC(=O)NC[C@H]2CN(c3ccc(N4CCCC4)c(F)c3)C(=O)O2)cc1` [Compound 56, (S)-N-[[3-(3-fluoro-4-pyrrolidinylphenyl)-2-oxo-5-oxazolidinyl]methyl]-4-oxo-4-(4-thiomethylphenyl)butanamide]: the “MIC against Clinical isolates Resistant” value was over 16 µg/mL.

Regarding `O=C(CCC(=O)c1ccc2ccccc2c1)NC[C@H]1CN(c2ccc(N3CCCC3)c(F)c2)C(=O)O1` [Compound 57, (S)-N-[[3-(3-fluoro-4-pyrrolidinylphenyl)-2-oxo-5-oxazolidinyl]methyl]-4-(2-naphthyl)-4-oxobutanamide], the “MIC against Clinical isolates Resistant” value is over 16 µg/mL.

Consider `CC(=O)NC[C@H]1CN(c2ccc(N3CCOCC3)c(F)c2)C(=O)O1` [Linezolid, (S)-N-[[3-[3-fluoro-4-(4-morpholinyl)phenyl]-2-oxo-5-oxazolidin-yl]methyl]-acetamide, reference compound], for which the MIC was in the range of 1 to 2 µg/mL (≈ 2.96 to 5.93 µM).

Consider “(S)-N-[[3-(3-fluoro-4-(1,2,4-triazolyl)phenyl)-2-oxo-5-oxazolidinyl]methyl]-4-(2′,2′-dimethyl-4-ethylphenyl)-4-oxobutanamide [Compound 45]”, for which the “MIC against Clinical isolates Resistant” value was 2 to 4 µg/mL.

The values above are taken from US7691889B2, “Antimycobacterial compounds” (Lupin Limited, priority 2002, dated 2010).
